Reference: ChEMBL document CHEMBL5303304, “EUbOPEN Chemogenomics Library - IncuCyte” (2023)
Where “and” joins values, the source holds several entries; their conditions need not be identical. Identical values can stand only once.

How the values were obtained:
Type in all cases: toxicity, cell-based
HEK-293T = test: Incucyte cell viability with HEK293T; settings: human, 10 µM, compound concentration 10 uM
Fibroblast = test: Incucyte cell viability with human fibroblast; settings: 10 µM, compound concentration 10 uM
U2OS = test: Incucyte cell viability with U2OS; settings: human, 10 µM, compound concentration 10 uM
Further: unitless GR value; below 1 slowed growth and below 0 cell loss.

SMILES	Growth Rate (Fibroblast; 12 h, replicate number 2)	Growth Rate (Fibroblast; 24 h, replicate number 2)	Growth Rate (U2OS; 12 h, replicate number 1)	Growth Rate (U2OS; 12 h, replicate number 2)	Growth Rate (Fibroblast; 6 h, replicate number 2)	Growth Rate (Fibroblast; 18 h, replicate number 2)	Growth Rate (U2OS; 18 h, replicate number 2)	Growth Rate (HEK-293T; 6 h, replicate number 2)	Growth Rate (Fibroblast; 0 h, replicate number 1)	Growth Rate (Fibroblast; 12 h, replicate number 1)	Growth Rate (U2OS; 6 h, replicate number 2)	Growth Rate (U2OS; 18 h, replicate number 1)	Growth Rate (U2OS; 24 h, replicate number 1)	Growth Rate (U2OS; 24 h, replicate number 2)	Growth Rate (HEK-293T; 18 h, replicate number 1)	Growth Rate (HEK-293T; 18 h, replicate number 2)	Growth Rate (HEK-293T; 24 h, replicate number 2)	Growth Rate (Fibroblast; 18 h, replicate number 1)	Growth Rate (Fibroblast; 24 h, replicate number 1)	Growth Rate (U2OS; 6 h, replicate number 1)	further results
CC(=O)c1c(C)c2cnc(Nc3ccc(N4CCN(CCOCCOCCOCCNC(=O)COc5cccc6c5C(=O)N(C5CCC(=O)NC5=O)C6=O)CC4)cn3)nc2n(C2CCCC2)c1=O (stereo not given)	0.92	0.89	0.99	0.93	–	–	–	–	–	–	–	–	–	–	–	–	–	–	–	–	Growth Rate (HEK-293T; 0 h, replicate number 1): 0.95; Growth Rate (Fibroblast; 0 h, replicate number 2): 0.18
C1CCC(NC2CCCCC2)CC1.Cc1cc(Cl)ccc1S(=O)(=O)NC[C@H]1C2CCC(CC2)[C@@H]1/C=C\CCCC(=O)O	0.97	–	–	–	0.75	0.9	0.99	–	–	–	–	–	–	–	–	–	–	–	–	–	Growth Rate (HEK-293T; 0 h, replicate number 1): 0.61; Growth Rate (Fibroblast; 0 h, replicate number 2): -0.12; Growth Rate (Fibroblast; 6 h, replicate number 1): 0.25
C=C[C@H]1C[N@@]2CC[C@H]1C[C@@H]2[C@@H](O)c1ccnc2ccc(OC)cc12 [QUINIDINE]	0.9	0.74	0.59	0.65	0.17	1	0.73	0.85	-0.43	-1	-0.07	0.93	0.96	0.83	–	–	–	–	–	–	Growth Rate (Fibroblast; 6 h, replicate number 1): 0.36; Growth Rate (U2OS; 0 h, replicate number 2): -1
CC(=O)Oc1ccc2c(c1)[C@@]1(C)CCC[C@](C)(C(=O)OC(=O)[C@@]3(C)CCC[C@]4(C)c5cc(OC(C)=O)ccc5CC[C@@H]34)[C@@H]1CC2 [ACETYL PODOCARPIC ACID ANHYDRIDE]	0.33	0.62	0.57	0.76	0.4	0.61	0.96	0.34	0.14	–	0.92	0.73	0.84	–	0.8	0.46	0.57	0.83	0.96	0.6	Growth Rate (HEK-293T; 0 h, replicate number 1): 0.44; Growth Rate (HEK-293T; 0 h, replicate number 2): 0.84; Growth Rate (HEK-293T; 12 h, replicate number 2): 0.36; Growth Rate (U2OS; 0 h, replicate number 1): -0.55; Growth Rate (U2OS; 0 h, replicate number 2): 0.76
CN(Cc1cccc(F)c1CNc1cc(F)c(S(=O)(=O)Nc2cscn2)c(F)c1)C(C)(C)C	–	–	0.72	0.86	–	–	0.97	–	–	–	0.58	0.89	0.9	0.96	–	–	–	0.65	–	0.37	Growth Rate (HEK-293T; 0 h, replicate number 1): 0.6; Growth Rate (HEK-293T; 0 h, replicate number 2): 0.65; Growth Rate (Fibroblast; 0 h, replicate number 2): -0.81
CN(C)C(=O)c1cc2cnc(Nc3ccc(N4CCN(CCCCNC(=O)COc5cccc6c5C(=O)N(C5CCC(=O)NC5=O)C6=O)CC4)cn3)nc2n1C1CCCC1 (stereo not given)	–	–	–	–	–	–	–	0.46	-1	–	0.65	0.93	0.95	–	0.88	0.67	0.81	–	–	–	Growth Rate (HEK-293T; 0 h, replicate number 2): 0.78; Growth Rate (HEK-293T; 6 h, replicate number 1): 0.52; Growth Rate (HEK-293T; 12 h, replicate number 2): 0.81; Growth Rate (HEK-293T; 24 h, replicate number 1): 1; Growth Rate (U2OS; 0 h, replicate number 1): -1; Growth Rate (U2OS; 0 h, replicate number 2): 0.74
CC(C)(C)OC(=O)CN(Cc1ccc(Cl)cc1)Cc1ccc([N+](=O)[O-])s1 [GSK-4112]	0.06	0.19	0.82	–	-0.08	0.06	–	0.58	–	0.71	–	0.94	0.95	–	0.76	0.75	0.92	0.74	0.72	–	Growth Rate (HEK-293T; 0 h, replicate number 1): 0.04; Growth Rate (HEK-293T; 0 h, replicate number 2): 0.51; Growth Rate (HEK-293T; 6 h, replicate number 1): 0.86; Growth Rate (HEK-293T; 12 h, replicate number 1): 0.78; Growth Rate (HEK-293T; 12 h, replicate number 2): 0.91; Growth Rate (Fibroblast; 6 h, replicate number 1): 0.7
Cc1c(-c2cc(-c3ccccc3Cl)no2)cnn1C1CCNCC1.Cl	-0.55	-0.36	0.76	0.66	-1	-0.4	0.68	-0.85	0.68	-1	0.01	0.87	0.89	0.75	-0.72	-0.18	-0.15	–	0.83	0.45	Growth Rate (HEK-293T; 6 h, replicate number 1): -0.95; Growth Rate (HEK-293T; 12 h, replicate number 1): -0.84; Growth Rate (HEK-293T; 12 h, replicate number 2): -0.43; Growth Rate (HEK-293T; 24 h, replicate number 1): -0.68; Growth Rate (Fibroblast; 6 h, replicate number 1): 0.11; Growth Rate (U2OS; 0 h, replicate number 2): -1
CC[C@H](C(=O)Nc1ccccc1N1CCCC1)c1ccccc1	0.33	0.9	–	–	-0.59	0.67	0.84	0.91	–	–	–	–	–	0.84	–	–	–	-0.04	-0.08	–	Growth Rate (HEK-293T; 6 h, replicate number 1): 0.92
CC(C)NC(=O)[C@H]1CCC[C@H]1Nc1nc(Nc2ccc(C(=O)N(C)C3CCN(C)CC3)cc2)ncc1Cl	–	0.47	–	0.53 and 0.52	-0.29	0.24 and 0.59	0.6 and 0.8	–	-1	0.11 and 0.25	0.48	0.54 and 0.76	0.63	0.61 and 0.9	0.71 and 0.79	0.56	0.69 and 0.88	0.31 and 0.66	0.54	–	Growth Rate (HEK-293T; 0 h, replicate number 2): -1; Growth Rate (HEK-293T; 12 h, replicate number 1): 0.62 and 0.41; Growth Rate (HEK-293T; 24 h, replicate number 1): 0.85; Growth Rate (U2OS; 0 h, replicate number 1): 0.59; Growth Rate (U2OS; 0 h, replicate number 2): 0.92
O=S1(=O)NCN(C2CC2)c2ccc(F)cc21	–	0.91	–	–	–	–	0.88	0.62	0.5	–	0.82	0.99	0.9	0.93	–	–	–	-0.11	0.6	0.68	Growth Rate (HEK-293T; 0 h, replicate number 1): 0.98; Growth Rate (HEK-293T; 0 h, replicate number 2): 0.78; Growth Rate (Fibroblast; 0 h, replicate number 2): 0.39; Growth Rate (U2OS; 0 h, replicate number 1): 0.05
O=C1CCCc2[nH]c(-c3ccnc(NCC4CC4)c3)c(Nc3ccccc3)c21	0.57	0.88	0.68	–	–	0.89	–	0.41	-1	0.34	–	0.72	0.59	1	0.94	0.62	0.7	0.49	0.45	0.51	Growth Rate (HEK-293T; 12 h, replicate number 2): 0.66; Growth Rate (HEK-293T; 24 h, replicate number 1): 0.88; Growth Rate (Fibroblast; 6 h, replicate number 1): -0.03; Growth Rate (U2OS; 0 h, replicate number 1): 0.75
CC(=O)N1CCN(c2ccc(OCC3COC(Cn4ccnc4)(c4ccc(Cl)cc4Cl)O3)cc2)CC1 (stereo not given) [KETOCONAZOLE]	–	0.89	–	0.63	–	0.96	0.99	-0.16	–	-1	0.94	–	–	–	0.34	0.32	0.38	–	–	0.7	Growth Rate (HEK-293T; 6 h, replicate number 1): -0.34; Growth Rate (HEK-293T; 12 h, replicate number 1): 0.05; Growth Rate (HEK-293T; 12 h, replicate number 2): 0.03; Growth Rate (HEK-293T; 24 h, replicate number 1): 0.6; Growth Rate (Fibroblast; 0 h, replicate number 2): -0.79; Growth Rate (Fibroblast; 6 h, replicate number 1): 0.47; Growth Rate (U2OS; 0 h, replicate number 2): -0.98
CCOC(=O)CS(=O)(=O)c1ccc([C@@H](CO)NC(=O)c2cc3c(Cl)c(Cl)c(C)cc3n2C)cc1	-0.95	-0.7	-0.25	0.52	-1	-0.85	0.87	–	-1	-0.98	1	-0.31	-0.16	0.97	–	–	–	-0.91	-0.81	-0.2	Growth Rate (HEK-293T; 0 h, replicate number 2): 0.13; Growth Rate (U2OS; 0 h, replicate number 1): -0.21
CCC(=O)N[C@@H]1CC[C@H](C(=O)N(C)c2ccc(-c3nc4ccccc4o3)cc2)C1 [BI 99990]	–	0.81	0.58	0.64	–	–	–	0.12	–	–	0.78	–	0.96	–	0.8	0.66	0.8	–	0.79	0.62	Growth Rate (HEK-293T; 6 h, replicate number 1): -0.34; Growth Rate (HEK-293T; 12 h, replicate number 1): 0.47; Growth Rate (HEK-293T; 12 h, replicate number 2): 0.49; Growth Rate (HEK-293T; 24 h, replicate number 1): 0.82
